Measured values published in patent US9040523B2, “Antifungal 5,6-dihydro-4H-pyrrolo[1,2-α][1,4]-benzodiazepines and 6H-pyrrolo[1,2-α][1,4]benzodiazepines substituted with benzene derivatives” (JANSSEN PHARMACEUTICA NV, priority 2010, dated 2015).
pIC50: −log10 of the molar value. Where two headings read alike, the source gives them in different places.

Tests used:
[1] = tested on: Sporothrix schenkii B62482; experiment: Antifungal activity in vitro (resazurin susceptibility screen), Inf. A; assay type: cell-based; settings: for IC50: Sporothrix
Method in brief: (§1)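 Serially diluted compounds were pre-spotted into 96-well U-bottom plates, then each well received 10^3 cfu of cryopreserved fungal inoculum in 200 μl RPMI-MOPS medium. Every plate carried a compound-free growth control (100%) and a medium-only control (0%), with resazurin as read-out.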

[2] = tested on: Cryptococcus neoformans B66663; experiment: Antifungal activity in vitro (resazurin susceptibility screen), Inf. F; assay type: cell-based; settings: for IC50: Cryptococcus neoformans
Method in brief: as §1

Microsporum canis B68128 = experiment: Antifungal activity in vitro (resazurin susceptibility screen), Inf. B; assay type: cell-based
Method in brief: (§2)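 Each well was inoculated with 10^3 cfu of fungus onto dried, pre-spotted compound serial dilutions in RPMI-MOPS medium, with fungal growth read by resazurin. Growth was referenced to drug-free culture (100%) and medium-only (0%) controls on each plate.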

[3] = tested on: Candida parapsilosis B66126; experiment: Antifungal activity in vitro (resazurin susceptibility screen), Inf. D; assay type: cell-based
Method in brief: as §2

[4] = Liver metabolic stability assay, mLM; assay type: in vitro ADME; settings: mouse liver microsomes, 1 mg protein/ml, 5 μM test compound, 15 min, 37 °C
Description: (§3) Liver preparations (microsomal fractions) were obtained from BD Gentest (San Jose, Calif., US). Metabolic stability was assessed using the following assay conditions. […] The mixture was pre-incubated at 37° C. for 5 min and the enzymatic reaction was started by addition of 5 μM test compound. After 0 (control) and 15 minutes (min), the reactions were terminated by addition of […] (500 μl). The precipitated material was removed by centrifugation at 1200 g for 10 min. The supernatant was analysed by LC-MS/MS on a ThermoFinnigan LCQ Deca XP ion-trap mass spectrometer equipped with an atmospheric pressure chemical ionisation source. Calculation of %-compound remaining was as described by Kantharaj et al. 2003 ((Kantharaj E., Tuytelaars A, Proost P E A, Ongel Z, van […] (2003). Simultaneous measurement of drug metabolic stability and identification of metabolites using ion-trap mass spectrometry.

[5] = tested on: Trichophyton mentagrophytes B70554; experiment: Antifungal activity in vitro (resazurin susceptibility screen), Inf. G; assay type: cell-based; settings: for IC50: Trichophyton mentagrophytes
Method in brief: as §2

[6] = Liver metabolic stability assay, gpLM; assay type: in vitro ADME, guinea pig
Description: as §3

[7] = tested on: Trichophyton rubrum B68183; experiment: Antifungal activity in vitro (resazurin susceptibility screen), Inf. C; assay type: cell-based
Method in brief: as §1

[8] = tested on: Aspergillus fumigatus B42928; experiment: Antifungal activity in vitro (resazurin susceptibility screen), Inf. E; assay type: cell-based
Method in brief: as §1

[9] = Liver metabolic stability assay, hLM; assay type: in vitro ADME, human; settings: human liver microsomes, 1 mg protein/ml, 5 μM test compound, 15 min, 37 °C
Description: as §3

CYP2D6 = CYP2D6 (Homo sapiens, UniProt P10635); experiment: Cytochrome P450 inhibition, Protocol A, cDNA expressed proteins, fluorogenic substrate; assay type: in vitro ADME; settings: % inhibition at 10 μM; substrate AMMC; cDNA expressed protein
Description: (§4) All fluorogenic based assays were performed in Black Costar 96-well plates according to Crespi et al 1997 with minor modifications (Crespi C L, Miller V P & Penman B W (1997). Microtiter plate assays for inhibition of human, drug-metabolizing cytochromes P450. Anal. Biochem. Vol 248, 1898-1900). Assay conditions are outlined in Table 5a. For cytochrome P450 3A4, three different fluorogenic substrates were used. Each reaction mixture consisted of the appropriate concentration of enzyme, NADPH-generating system (“NADPH” means β-nicotinamide adenine dinucleotide phosphate, reduced), substrate in sodium/potassium buffer (pH 7.4). For each cytochrome P450 batch Michealis-Menten kinetics were determined using 11 concentrations.
(§5) Thereafter, further dilutions were made in acetonitrile. […] The compounds were serially diluted to give final concentrations ranging from 1 nM to 10 μM. The reaction mixtures, whereby 1 μL of buffer was replaced by compound solution, were pre-warmed for 5 min at 37° C. and the reaction was initiated by the addition of β-nicotinamide adenine dinucleotide phosphate (NADP+). Reactions were terminated by addition of stopping reagent and the fluorescence was measured using a Fluoroscan (Labsystems, Brussel, Belgium).
(§6) In Table 5a, the following abbreviations were used: 3-cyano-7-ethocycoumarin (CEC), 7-methoxy-4-trifluoromethylcoumarin (MFC), 3-[2-(N,N-diethyl-N-methylamino)ethyl]-7-methoxy-4-methylcoumarin (AMMC), 7-benzyloxy-trifluoromethyl coumarin (BFC), 7-benzyloxyquinoline (BQ) and dibenzyl fluorescein (DBF).

CYP2C9 = CYP2C9 (Homo sapiens, UniProt P11712); experiment: as above; assay type: in vitro ADME; settings: % inhibition at 10 μM; substrate MFC; cDNA expressed protein
Description: as §4, §5, §6

CYP1A2 = biological target: T1, CYP1A2 (Homo sapiens, UniProt P05177); experiment: as above; assay type: in vitro ADME; settings: % inhibition at 10 μM; substrate CEC; cDNA expressed protein
T1 sequence (P05177 1-516): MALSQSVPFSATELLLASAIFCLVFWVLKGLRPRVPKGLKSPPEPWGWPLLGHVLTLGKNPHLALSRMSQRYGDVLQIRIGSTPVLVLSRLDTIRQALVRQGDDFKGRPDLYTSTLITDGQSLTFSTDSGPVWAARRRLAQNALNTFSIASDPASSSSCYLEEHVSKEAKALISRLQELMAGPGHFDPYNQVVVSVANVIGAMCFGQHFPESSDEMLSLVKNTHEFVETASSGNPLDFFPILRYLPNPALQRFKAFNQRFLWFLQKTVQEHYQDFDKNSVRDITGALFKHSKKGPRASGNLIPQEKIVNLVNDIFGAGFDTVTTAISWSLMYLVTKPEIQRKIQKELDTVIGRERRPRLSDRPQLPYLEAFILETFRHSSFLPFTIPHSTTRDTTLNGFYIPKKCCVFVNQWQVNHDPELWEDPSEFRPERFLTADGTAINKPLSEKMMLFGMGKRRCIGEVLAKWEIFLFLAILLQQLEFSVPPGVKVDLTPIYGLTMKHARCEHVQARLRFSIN
Description: as §4, §5, §6

CYP3A4 = CYP3A4 (Homo sapiens, UniProt P08684); experiment: Cytochrome P450 inhibition, Protocol A, cDNA expressed proteins, fluorogenic substrates; assay type: in vitro ADME; settings: % inhibition at 10 μM, cDNA expressed protein
Description: as §4, §5, §6

Cytochrome P450 2C8 = biological target: T2, Cytochrome P450 2C8 (Homo sapiens, UniProt P10632); experiment: Human liver microsomal cytochrome P450 cocktail inhibition assay, Protocol C; assay type: in vitro ADME; settings: human liver microsomes 0.2 mg/ml; probe amodiaquine 2 microM; read-out: 2C8_Amod pIC50 (converted)
T2 construct: tissue BD Gentest; host or cells: human liver microsomes
T2 sequence (P10632 1-490): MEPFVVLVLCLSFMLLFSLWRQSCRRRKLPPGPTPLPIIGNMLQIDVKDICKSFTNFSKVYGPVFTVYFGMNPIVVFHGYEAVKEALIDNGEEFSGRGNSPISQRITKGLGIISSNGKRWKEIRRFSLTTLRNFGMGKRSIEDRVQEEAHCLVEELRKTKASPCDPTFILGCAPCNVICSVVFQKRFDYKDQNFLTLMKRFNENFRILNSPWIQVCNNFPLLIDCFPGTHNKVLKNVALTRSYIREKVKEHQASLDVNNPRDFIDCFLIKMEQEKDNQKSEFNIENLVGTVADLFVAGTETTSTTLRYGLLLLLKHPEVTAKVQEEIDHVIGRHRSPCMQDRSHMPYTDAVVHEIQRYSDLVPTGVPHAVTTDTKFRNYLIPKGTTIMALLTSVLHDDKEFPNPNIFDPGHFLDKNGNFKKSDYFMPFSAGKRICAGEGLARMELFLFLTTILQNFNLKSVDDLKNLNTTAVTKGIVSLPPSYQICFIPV
Description: (§7) Probe substrates and final assay concentrations with the appropriate internal standard are outlined in Table 6a.
(§8) Assays were performed in 0.1 M phosphate buffer (pH 7.4), containing 0.2 mg/ml human liver microsomes (BD Gentest) and a probe substrate mix consisting of: phenacetin, tolbutamide, S-mephenyloin, dextromethorphan, amodiaquine and midazolam (Table 6a) and a range of test compound concentrations (0 to 30 micromolar) in a total volume of 100 microliters. After a 10 min pre-incubation at 37° C., the reaction was started with addition of NADPH at a final concentration of 1.0 mM. […] The samples are centrifuged for 10 min at 4° C. at 4000 rpm and 60 microliters supernatant is diluted with 180 microliters water. Each sample is injected onto a UPLC/MS system for the simultaneous measurement of the probe substrate metabolites and their associated deuterated internal standards. Percentage inhibition is calculated according to: %-inhibition=(1−Ri/R)*100, whereby Ri and R are the metabolite to internal standard peak area ratios in the presence and absence of inhibitor respectively.
(§9) Percentage inhibition data are plotted against the Log transformed test compound concentration and after curve fitting the IC50-value is determined.

Cytochrome P450 1A2 = biological target: T3, Cytochrome P450 1A2 (Homo sapiens, UniProt P05177); experiment: as above
T3 sequence (P05177 1-516): T1 sequence (P05177 1-516)
Description: as §7, §8, §9

Cytochrome P450 2C9 = Cytochrome P450 2C9 (Homo sapiens, UniProt P11712); experiment: as above; settings: 2C9 Tolbut pIC50, human liver microsomes 0.2 mg/ml; probe tolbutamide 100 microM
Description: as §7, §8, §9

Cytochrome P450 2D6 = Cytochrome P450 2D6 (Homo sapiens, UniProt P10635); experiment: as above; settings: 2D6_Dextro pIC50, human liver microsomes 0.2 mg/ml; probe dextromethorphan 3 microM
Description: as §7, §8, §9

Cytochrome P450 2C19 = Cytochrome P450 2C19 (Homo sapiens, UniProt P33261); experiment: as above; settings: 2C19_S-Meph pIC50, human liver microsomes 0.2 mg/ml; probe S-mephenytoin 30 microM
Description: as §7, §8, §9

[10] = guinea pig microsomes, 1 mg protein/ml, 5 μM test compound, 15 min, 37 °C

CYP3A4, sequence (P08684 whole entry): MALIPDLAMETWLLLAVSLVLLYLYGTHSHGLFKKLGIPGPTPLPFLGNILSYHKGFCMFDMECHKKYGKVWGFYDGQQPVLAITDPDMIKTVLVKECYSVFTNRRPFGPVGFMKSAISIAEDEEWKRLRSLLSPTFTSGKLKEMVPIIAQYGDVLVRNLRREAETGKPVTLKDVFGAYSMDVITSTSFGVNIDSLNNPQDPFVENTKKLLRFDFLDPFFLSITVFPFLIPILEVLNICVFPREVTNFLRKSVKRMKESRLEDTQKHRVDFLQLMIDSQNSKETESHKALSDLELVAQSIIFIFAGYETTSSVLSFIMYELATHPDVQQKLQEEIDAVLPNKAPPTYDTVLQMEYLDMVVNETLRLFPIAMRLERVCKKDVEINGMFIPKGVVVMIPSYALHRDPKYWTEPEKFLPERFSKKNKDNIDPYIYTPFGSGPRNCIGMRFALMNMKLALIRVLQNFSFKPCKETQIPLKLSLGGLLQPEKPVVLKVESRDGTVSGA
Cytochrome P450 2C9, sequence (P11712 whole entry): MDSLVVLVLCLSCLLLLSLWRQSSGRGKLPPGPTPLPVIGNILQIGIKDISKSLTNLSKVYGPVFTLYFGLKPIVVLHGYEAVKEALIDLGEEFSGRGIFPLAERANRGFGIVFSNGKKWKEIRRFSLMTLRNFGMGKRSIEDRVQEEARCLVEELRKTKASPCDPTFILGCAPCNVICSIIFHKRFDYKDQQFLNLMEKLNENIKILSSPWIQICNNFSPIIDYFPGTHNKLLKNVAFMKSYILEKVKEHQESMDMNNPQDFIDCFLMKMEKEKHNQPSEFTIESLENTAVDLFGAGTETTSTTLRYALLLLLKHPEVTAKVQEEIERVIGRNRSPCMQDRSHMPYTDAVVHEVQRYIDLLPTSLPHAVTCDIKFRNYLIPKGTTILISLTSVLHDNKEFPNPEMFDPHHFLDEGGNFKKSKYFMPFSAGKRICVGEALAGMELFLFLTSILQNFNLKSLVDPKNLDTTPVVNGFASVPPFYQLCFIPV
CYP2C9, sequence (P11712 whole entry): as above
CYP2D6, sequence (P10635 whole entry): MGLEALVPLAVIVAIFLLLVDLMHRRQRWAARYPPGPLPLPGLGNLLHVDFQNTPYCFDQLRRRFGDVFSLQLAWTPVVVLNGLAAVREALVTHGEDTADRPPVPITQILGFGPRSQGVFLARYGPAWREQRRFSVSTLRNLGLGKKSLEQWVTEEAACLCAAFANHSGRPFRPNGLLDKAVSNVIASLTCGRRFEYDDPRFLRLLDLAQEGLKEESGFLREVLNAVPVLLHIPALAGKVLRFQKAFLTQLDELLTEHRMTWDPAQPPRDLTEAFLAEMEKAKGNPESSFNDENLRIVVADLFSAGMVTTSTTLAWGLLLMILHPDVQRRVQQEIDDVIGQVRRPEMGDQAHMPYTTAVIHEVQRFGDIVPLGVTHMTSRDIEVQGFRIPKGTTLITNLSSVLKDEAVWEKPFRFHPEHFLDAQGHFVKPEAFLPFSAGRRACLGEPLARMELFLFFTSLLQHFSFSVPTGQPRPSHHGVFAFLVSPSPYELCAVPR
Cytochrome P450 2D6, sequence (P10635 whole entry): as above
Cytochrome P450 2C19, sequence (P33261 whole entry): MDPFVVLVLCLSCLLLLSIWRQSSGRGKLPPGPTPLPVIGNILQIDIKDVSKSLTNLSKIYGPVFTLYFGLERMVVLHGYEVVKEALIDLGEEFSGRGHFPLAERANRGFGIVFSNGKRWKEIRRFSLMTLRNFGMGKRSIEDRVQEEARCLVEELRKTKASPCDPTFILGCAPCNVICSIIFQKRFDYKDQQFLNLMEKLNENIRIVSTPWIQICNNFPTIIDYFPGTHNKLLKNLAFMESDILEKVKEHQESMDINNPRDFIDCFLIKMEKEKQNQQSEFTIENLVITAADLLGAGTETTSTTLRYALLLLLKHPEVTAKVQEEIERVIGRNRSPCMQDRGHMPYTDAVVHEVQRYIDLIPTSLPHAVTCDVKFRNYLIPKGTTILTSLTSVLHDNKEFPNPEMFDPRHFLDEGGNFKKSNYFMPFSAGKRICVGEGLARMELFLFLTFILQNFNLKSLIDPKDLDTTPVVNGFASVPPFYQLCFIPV

SMILES: CC(O)c1ccc(C2NCc3c(Cl)cccc3-n3cccc32)cc1 (stereo not drawn) [Compound 1, 4-(7-chloro-5,6-dihydro-4H-pyrrolo[1,2-a][1,4]benzodiazepin-4-yl)-alpha-methyl-benzenemethanol]
- IC50 ([1]; B62482, read-out: Inf. A pIC50 (converted)): > 63.1 µM
- IC50 ([2]; B66663, read-out: Inf. F pIC50 (converted)): 63.1 µM
- IC50 (Microsporum canis B68128; Microsporum canis, B68128, read-out: Inf. B pIC50 (converted)): 3.16 µM
- IC50 ([3]; Lodderomyces parapsilosis, B66126, read-out: Inf. D pIC50 (converted)): > 63.1 µM
- %-compound metabolised Met_mLM [4]: 51%
- melting point: 118.5 to 121.2 °C
- IC50 ([5]; B70554, read-out: Inf. G pIC50 (converted)): 12.6 µM
- %-compound metabolised Met_gpLM ([6]; guinea pig, microsomes, 0.25 h, 5 μM, pH 7.4): 86%
- IC50 ([7]; Trichophyton rubrum, B68183, read-out: Inf. C pIC50 (converted)): 3.16 µM
- IC50 ([8]; Aspergillus fumigatus, B42928, read-out: Inf. E pIC50 (converted)): > 63.1 µM
- %-compound metabolised_Met_hLM [9]: 43%

SMILES: CC(=O)c1ccc(C2NCc3c(Cl)cccc3-n3cccc32)cc1.Cl (stereo not shown) [Compound 5, 1-[4-(7-chloro-5,6-dihydro-4H-pyrrolo[1,2-a][1,4]benzodiazepin-4-yl)phenyl]-ethanone .HCl]
- IC50 ([1]; B62482, Sporothrix schenkii B62482, 27 °C, 4 days, resa time 24 hours, highest in-test concentration 64 μM, read-out: Inf. A pIC50 (converted)): 39.8 µM
- IC50 ([2]; B66663, Cryptococcus neoformans B66663, 37 °C, 24 hours, resa time 4 hours, read-out: Inf. F pIC50 (converted)): 25.1 µM
- %-compound metabolised Met_mLM [4]: 72%
- IC50 ([5]; B70554, Trichophyton mentagrophytes B70554, 27 °C, 7 days, resa time 24 hours, read-out: Inf. G pIC50 (converted)): 0.631 µM
- %-compound metabolised Met_gpLM [6, 10]: 88%
- IC50 ([7]; Trichophyton rubrum B68183, 27 °C, 7 days, resa time 24 hours, read-out: Inf. C pIC50 (converted)): 0.501 µM
- IC50 ([8]; Aspergillus fumigatus B42928, 27 °C, 48 hours, resa time 17 hours, read-out: Inf. E pIC50 (converted)): 2 µM
- %-compound metabolised_Met_hLM [9]: 59%

SMILES: CC(=O)c1ccc(C2=NCc3c(ccc(Cl)c3Cl)-n3cccc32)cc1.Cl [Compound 21, 1-[4-(7,8-dichloro-6H-pyrrolo[1,2-a][1,4]benzodiazepin-4-yl)phenyl]-ethanone .HCl]
- Inf. A pIC50 ([1]; Sporothrix schenkii B62482, 27 °C, 4 days, resa time 24 hours, highest in-test concentration 64 μM): <4.2
- hCYP2D6_AMMC_Pct_Inh (CYP2D6): 39%
- hCYP2C9_MFC_Pct_Inh (CYP2C9): 54%
- hCYP1A2_CEC_Pct_Inh (CYP1A2): 27%
- Inf. F pIC50 ([2]; Cryptococcus neoformans B66663, 37 °C, 24 hours, resa time 4 hours): <4.2
- Inf. B pIC50 (Microsporum canis B68128; Microsporum canis B68128, 27 °C, 9 days, resa time 24 hours): <4.2
- Inf. D pIC50 ([3]; Candida parapsilosis B66126, 37 °C, 24 hours, resa time 4 hours): <4.2
- %-compound metabolised Met_mLM [4]: 24%
- Inf. G pIC50 ([5]; Trichophyton mentagrophytes B70554, 27 °C, 7 days, resa time 24 hours): <4.2
- %-compound metabolised Met_gpLM [6, 10]: 64%
- Inf. C pIC50 ([7]; Trichophyton rubrum B68183, 27 °C, 7 days, resa time 24 hours): <4.2
- Inf. E pIC50 ([8]; Aspergillus fumigatus B42928, 27 °C, 48 hours, resa time 17 hours): <4.2
- hCYP3A4_BFC_Pct_Inh (CYP3A4; substrate BFC): 0%
- hCYP3A4_BQ_Pct_Inh (CYP3A4; substrate BQ): 26%
- hCYP3A4_DBF_Pct_Inh (CYP3A4; substrate DBF): 26%
- %-compound metabolised_Met_hLM [9]: 17%

SMILES: CC(=O)c1ccc(C2NCc3ccc(Cl)cc3-n3cccc32)cc1 (stereo not shown) [drawing 101]
- IC50 (Cytochrome P450 2C8): 7.94 µM
- pIC50 (Cytochrome P450 1A2): < 5.00
- pIC50 (Cytochrome P450 2C9): 5.20
- pIC50 (Cytochrome P450 2D6): 5.10
- pIC50 (Cytochrome P450 2C19): 5.50
